Experimental data: patent publication US9278068B2, “Vesicle compositions” (Sensulin LLC, priority 2011, dated 2016)

Legend:
[1] = tested on: HeLa cells; assay: MTT assay for cytotoxicity; conditions: 2 h
[2] = tested on: NF-κB; assay: NF-κB assay for inflammation (nuclear translocation of NF-κB, immunocytochemistry, PCC); conditions: HeLa cells; for Inflammation (PCC) 40 nM / Inflammation (PCC) 80 nM / Inflammation (PCC) 160 nM: 2 h, PCC between nuclear and cytoplasmic fraction of NF-κB

| Compound | MTT (% Cell Survival) 40 nM [1] | MTT (% Cell Survival) 80 nM [1] | MTT (% Cell Survival) 160 nM [1] | Inflammation (PCC) 40 nM [2] | Inflammation (PCC) 80 nM [2] | Inflammation (PCC) 160 nM [2] | nuclear or cytoplasmic localization of NF-κB (FIG. 4 images) ([2]; boronic acids 80 nM, 2 hrs, LPS positive control) |
| --- | --- | --- | --- | --- | --- | --- | --- |
| CC(C)[Si](C(C)C)(C(C)C)n1ccc(B(O)O)c1 [1-(triisopropylsilyl)pyrrol-E-3-boronic acid] | 72.92% | 65.92% | 56.94% | −0.0781 | 0.00445 | 0.169. |  |
| OB(O)c1cnn(Cc2ccccc2)c1 [1-benzyl-1H-pyrazole-4-boronic acid] | 100.88% | 62.54% | 86.11% | −0.1081 | −0.0841 | 0.03839 |  |
| C=C(B(O)O)c1ccccc1 [1-phenylvinylbornic acid] | 66.08% | 67.23% | 58.91% | −0.1145 | 0.03776 | 0 |  |
| OB(O)c1cnc(OCc2ccccc2)nc1OCc1ccccc1 [2,4-bis(benzyloxy)pyrimidine-5-boronic acid] | 100.05% | 89.04% | 74.74% | −0.0647 | −0.0533 | 0.04709 |  |
| COc1cccc(OC)c1B(O)O [2,6-dimethoxyphenylboronic acid] | 92.66% | 78.05% | 48.60% | −0.0679 | 0.03888 | 0.2607 |  |
| CN(C)S(=O)(=O)c1ccccc1B(O)O [2-(N,N-dimethylsulphamoyl)benzene-boronic acid] | 74.92% | 76.38% | 47.32% | −0.1529 | −0.0404 | 0.03422 |  |
| OB(O)c1ccc(Br)nc1 [2-bromopyridine-5-boronic acid] | 95.1013% | 120.589% | 35.78% | 0.00604 | 0.078 | 0.1446 |  |
| OB(O)c1cc2ccccc2nc1Cl [2-chloro-3-quinolineboronic acid] | 30.1105% | 44.7882% | 32.43% | 0.08644 | 0.05095 | 0.193 |  |
| OB(O)c1ccccc1Cl [2-chlorophenylboronic acid] | 86.3068% | 60.0002% | 45.45% | −0.0957 | .00949 | 0.09948 |  |
| OB(O)c1ccnc(Cl)c1 [2-chloropyridine-4-boronic acid] | 84.93% | 58.47% | 56.36% | −0.1195 | 0.00374 | 0 |  |
| N#Cc1ccccc1B(O)O [2-cyanophenylboronic acid] | 117.42% | 62.63% | 60.33% | −0.0641 | 0.0475 | 0.104 |  |
| CCOc1ccc(B(O)O)cn1 [2-ethoxy-5-pyridine-boronic acid] | 81.40% | 69.58% | 33.80% | −0.1416 | −0.0136 | 0.1498 |  |
| O=Cc1sccc1B(O)O [2-formyl-3-thiopheneboronic acid] | 55.3376% | 40.3684% | 46.21% | −0.0993 | −0.0793 | 0.1262 |  |
| OB(O)c1ccccc1O [2-hydroxyphenylboronic acid] | 70.3314% | 55.8039% | 53.64% | −0.0198 | −0.0878 | 0.08884 |  |
| OB(O)c1ccc2ccccc2c1 [2-napthylboronic acid] | 24.3831% | 37.2192% | 21.1% | 0.06402 | 0.2437 | 0.09593 |  |
| CCCOc1ccccc1B(O)O [2-propoxyphenylboronic acid] | 45.7459% | 42.2099% | 41.95% | −0.0398 | 0.03035 | −0.04954 |  |

| Compound | MTT (% Cell Survival) 40 nM [1] | MTT (% Cell Survival) 80 nM [1] | MTT (% Cell Survival) 160 nM [1] | Inflammation (PCC) 40 nM [2] | Inflammation (PCC) 80 nM [2] | Inflammation (PCC) 160 nM [2] | nuclear or cytoplasmic localization of NF-κB (FIG. 4 images) ([2]; boronic acids 80 nM, 2 hrs, LPS positive control) |
| --- | --- | --- | --- | --- | --- | --- | --- |
| OB(O)c1cccs1 [2-thienylboronic acid] | 53.48% | 75.76% | 61.19% | −0.121 | −0.0343 | 0 |  |
| Cc1noc(C)c1B(O)O [3,5-dimethylisoxazole-4-boronic acid] | 88.37% | 90.63% | 42.89% | −0.061 | 0.0057 | −0.01277 |  |
| OB(O)c1cccc(OCc2ccccc2)c1 [3-(benzyloxy)phenylboronic acid] | 99.83% | 71.94% | 28.92% | −0.1159 | 0.0809 | 0.3768 |  |
| O=[N+]([O-])/C=C/c1cccc(B(O)O)c1 [3-[(E)-2-nitrovinyl]phenylboronic acid] | 116.00% | 96.38% | 73.93% | −0.0456 | −0.0517 | 0.2058 |  |
| NC(=O)c1cccc(B(O)O)c1 [3-aminocarbonylphenylboronic acid] | 101.02% | 77.93% | 29.19% | −0.0696 | 0.07022 | 0.1748 |  |
| OB(O)c1cscc1Br [3-bromothiophene-4-boronic acid] | 76.45% | 95.90% | 97.49% | −0.0695 | 0.1568 | 0.1528 |  |
| OB(O)c1cc(Br)cs1 [3-bromothiophene-5-boronic acid] | 116.67% | 97.63% | 62.08% | −0.1162 | −0.023 | 0.1539 |  |
| O=C(O)c1cc(B(O)O)cc([N+](=O)[O-])c1 [3-carboxy-5-nitrophenylboronic acid] | 54.3094% | 46.2431% | 33.3% | −0.0136 | 0.03893 | 0.1227 |  |
| N#Cc1cc(B(O)O)ccc1F [3-cyano-4-fluorophenylboronic acid] | 89.30% | 60.46% | 47.56% | −0.0231 | 0.1014 | 0 |  |
| O=Cc1ccoc1B(O)O [3-formylfuran-2-boronic acid] | 107.84% | 73.72% | 65.18% | −0.0012 | 0.0274 | 0.08621 |  |
| OB(O)c1cccc(O)c1 [3-hydroxyphenylboronic acid] | 104.60% | 62.75% | 89.29% | −0.1136 | 0.04005 | 0 |  |
| OB(O)c1ccsc1 [3-thienylboronic acid] | 90.42% | 80.00% | 49.85% | −0.0062 | 0.1457 | 0.05963 |  |
| CN(C)c1ccc(B(O)O)cc1 [4-(dimethylamino)phenylboronic acid] | 78.59% | 71.75% | 51.04% | −0.1318 | −0.0051 | 0.213 |  |
| N#Cc1ccc(B(O)O)cc1 [4-cyanophenylboronic acid] | 60.40% | 63.69% | 54.22% | −0.0705 | −0.204 | 0.4879 |  |
| OB(O)c1cccc2c1oc1ccccc12 [4-dibenzofuranboronic acid] | 71.48% | 75.50% | 70.50% | −0.0736 | −0.0438 | −0.128 |  |
| lipopolysaccharide [LPS, reference compound] |  |  |  |  |  |  | nuclear translocation of NF-κB |
